# Marks after values point to notes of the source that are not given here.
# Tests used:
# [1] = H22-bearing mice study: mortality, survival time, body weight, spleen and thymus indices; assay type: in vivo, C57 mice
# Description: (§1) A homogenate suspension of H22 mouse hepatoma was injected subcutaneously under the axilla of 45 healthy male C57 mice to create a solid tumor model. Once all mouse tumors averaged a volume of about 150 mm3, mice were randomized into groups based on tumor volume and were administered the respective drugs or drug solvents via oral gavage or intraperitoneal injection for 18 consecutive days. Longest and shortest diameters of tumors were measured every three days to calculate tumor volume, and mouse weights were recorded every three days. At the end of the experiment, tumors, spleens, and thymuses were harvested and weighed to calculate tumor, spleen, and thymus indices.
# (§2) Spleen and thymus organ coefficients: After the last dose, spleen, thymus, and tumor weights are measured, and organ coefficients are calculated.
# [2] = Orthotopic H22-bearing mice study: routine blood tests and liver/kidney function indicators; assay type: in vivo, C57 mice; conditions: blood after last dose, cisplatin 4 mg/kg i.p., Kanglaite soft capsule 1404 mg/kg oral, GLP-2 low dose 130 mg/kg oral
# Description: (§3) An additional 6 mice served as the normal control group.
# Hematological tests: After the last dose, routine blood tests (WBC and RBC) and biochemical tests (liver and kidney functions) were performed.
# [3] = LLC-bearing mice study: mortality, survival time, body weight, spleen and thymus indices; assay type: in vivo, C57 mice
# Description: (§4) Healthy LLC cells were inoculated subcutaneously into the left shoulder of 8 healthy male C57 mice. Once tumors reached a volume of 2,000-3,000 mm3, they were harvested and homogenized to prepare a homogenate suspension. This suspension was then injected subcutaneously into the axilla of 52 healthy male C57 mice to establish a solid tumor model. Once all mouse tumors averaged a volume of about 180 mm3, mice were randomized into groups based on tumor volume and were administered the respective drugs or drug solvents via oral gavage or intraperitoneal injection for 18 consecutive days. Longest and shortest diameters of tumors were measured every three days to calculate tumor volume, and mouse weights were recorded every three days. At the end of the experiment, tumors, spleens, and thymuses were harvested and weighed to calculate tumor, spleen, and thymus indices.
# as §2
# [4] = tested on: LLC-bearing mice; assay: Antitumor effect of GLP-2 combined with chemotherapy on LLC-bearing mice (tumor volume, tumor index, inhibition rates); assay type: in vivo, C57 mice
# Description: as §4, with “Once tumors reached a volume of 2,000-3,000 mm3, they were harvested and homogenized to prepare a homogenate suspension.” left out, “indices. […] [table] […] Where TRTV is the relative tumor volume in the experimental group, and CRTV is the relative tumor volume in the model control group. Relative tumor volume (RTV)=Vt/V0, where Vt is the tumor volume on day t of dosing, and V0 is the tumor volume at the time of grouping. […] Where T represents the average tumor weight in the treatment group, and C represents the average tumor weight in the model control group. […] Spleen and thymus organ coefficients: After the last dose, spleen, thymus, and tumor weights are measured, and organ coefficients are calculated.” for “indices.”
# [5] = tested on: orthotopic H22-bearing mice; assay: Orthotopic H22-bearing mice: liver tumor by small animal in vivo imaging; set-up: species or system C57 mice; conditions: Kanglaite soft capsule 1404 mg/kg oral, GLP-2 low dose 130 mg/kg oral
# Description: An additional 6 mice served as the normal control group. […] The proposed clinical dose for Kanglaite soft capsules is 0.45 g per capsule, 6 capsules per dose, 4 doses per day, which totals 10.8 g per day. […] This study used the proposed clinical dose as a basis for the experiment. […] [table] Tumor volume measurement: Tumor volume changes were measured weekly using small animal in vivo imaging technology.
# [6] = tested on: H22-bearing mice; assay: Antitumor effect of GLP-2 combined with chemotherapy on H22-bearing mice (tumor volume, tumor index, inhibition rates); assay type: in vivo, C57 mice; conditions: for Tumor growth inhibition rate vs. the model control group: by tumor weight, cisplatin 3 mg/kg i.p. alone or + GLP-2 low dose 50 mg/kg oral
# Description: as §1, with “indices. […] [table] […] Where TRTV is the relative tumor volume in the experimental group, and CRTV is the relative tumor volume in the model control group. Relative tumor volume (RTV)=Vt/V0, where Vt is the tumor volume on day t of dosing, and V0 is the tumor volume at the time of grouping. […] Where T represents the average tumor weight in the treatment group, and C represents the average tumor weight in the model control group. […] Spleen and thymus organ coefficients: After the last dose, spleen, thymus, and tumor weights are measured, and organ coefficients are calculated.” for “indices.”
# [7] = tested on: lymphocyte subtypes CD3+/CD4+ and CD3+/CD8+ in the blood; assay: Orthotopic H22-bearing mice study: blood CD3+/CD4+ and CD3+/CD8+ by flow cytometry; assay type: in vivo, C57 mice; conditions: blood after last dose, cisplatin 4 mg/kg i.p., Kanglaite soft capsule 1404 mg/kg oral, GLP-2 low dose 130 mg/kg oral
# Description: as §3
# CD4^+and CD8^+content measurement: After the last dose, lymphocyte subtypes CD3^+/CD4^+and CD3^+/CD8^+in the blood were measured using flow cytometry.
# [8] = Orthotopic H22-bearing mice study: mortality, body weight, organ coefficients; assay type: in vivo; conditions: Kanglaite soft capsule 1404 mg/kg oral, GLP-2 low dose 130 mg/kg oral
# Text: as §3
# [9] = 18 days, cisplatin 3 mg/kg i.p. alone or + GLP-2 low dose 50 mg/kg oral
# [10] = D0, cisplatin 3 mg/kg i.p. alone or + GLP-2 low dose 50 mg/kg oral
# [11] = D3, cisplatin 3 mg/kg i.p. alone or + GLP-2 low dose 50 mg/kg oral
# [12] = D6, cisplatin 3 mg/kg i.p. alone or + GLP-2 low dose 50 mg/kg oral
# [13] = D9, cisplatin 3 mg/kg i.p. alone or + GLP-2 low dose 50 mg/kg oral
# [14] = D12, cisplatin 3 mg/kg i.p. alone or + GLP-2 low dose 50 mg/kg oral
# [15] = D15, cisplatin 3 mg/kg i.p. alone or + GLP-2 low dose 50 mg/kg oral
# [16] = D18, cisplatin 3 mg/kg i.p. alone or + GLP-2 low dose 50 mg/kg oral
# [17] = D0, cisplatin 4 mg/kg i.p. alone or + GLP-2 low dose 50 mg/kg oral
# [18] = D3, cisplatin 4 mg/kg i.p. alone or + GLP-2 low dose 50 mg/kg oral
# [19] = D6, cisplatin 4 mg/kg i.p. alone or + GLP-2 low dose 50 mg/kg oral
# [20] = D9, cisplatin 4 mg/kg i.p. alone or + GLP-2 low dose 50 mg/kg oral
# [21] = D12, cisplatin 4 mg/kg i.p. alone or + GLP-2 low dose 50 mg/kg oral
# [22] = D15, cisplatin 4 mg/kg i.p. alone or + GLP-2 low dose 50 mg/kg oral
# [23] = D18, cisplatin 4 mg/kg i.p. alone or + GLP-2 low dose 50 mg/kg oral
# [24] = 14 days, cisplatin 4 mg/kg i.p.
smiles,measurement,setting,value
N.N.[Cl][Pt][Cl] [Cisplatin],Mortality rate,[1]; [9],0.0%
same,Number of deaths,[1]; [9],0
same,Weight,[1]; [10],20.6 ± 1.3 g
same,Weight,[1]; [11],20.8 ± 1.3 g
same,Weight,[1]; [12],21 ± 1.3 g
same,Weight,[1]; [13],21 ± 1.5 g
same,Weight,[1]; [14],20.7± 1.4^+ g
same,Weight,[1]; [15],20.5± 1.4^+ g
same,Weight,[1]; [16],19.9± 1.7^+ g
same,Survival time,[1]; cisplatin 3 mg/kg i.p. alone or + GLP-2 low dose 50 mg/kg oral,18 ± 0 days
same,ALT,[2],115 ± 39 U/L
same,AST,[2],771 ± 153 UL
same,BUN,[2],13.52 ± 4.94 mmol/L
same,CRE,[2],18.9 ± 2.7 µmol/L
same,RBC,[2],8.91 ± 0.22 10^12/L
same,WBC,[2],4.41 ± 1.83 10^9/L
same,Number of deaths,"[3]; 18 days, cisplatin 4 mg/kg i.p. alone or + GLP-2 low dose 50 mg/kg oral",2
same,Weight,[3]; [17],20.8 ± 1.4 g
same,Weight,[3]; [18],20.7 ± 1.3 g
same,Weight,[3]; [19],20.4 ± 1 g
same,Weight,[3]; [20],19.7± 0.8*^+ g
same,Weight,[3]; [21],18.5 ± 0.6*+ g
same,Weight,[3]; [22],18.2± 1.2*^+ g
same,Weight,[3]; [23],17.9± 1.4*^+ g
same,Survival time,[3]; cisplatin 4 mg/kg i.p. alone or + GLP-2 low dose 50 mg/kg oral,17.1 ± 1.9 days
same,Tumor volume,[4]; [17],193 ± 41.9 mm^3
same,Tumor volume,[4]; [18],350.8 ± 138.5 mm^3
same,Tumor volume,[4]; [19],692.4± 215.3^+ mm^3
same,Tumor volume,[4]; [20],956.4± 394^+ mm^3
same,Tumor volume,[4]; [21],1186.6± 386.4^+ mm^3
same,Tumor volume,[4]; [22],1388.9± 448.2^+ mm^3
same,Tumor volume,[4]; [23],1679.8± 439^+ mm^3
same,Tumor growth inhibition rate vs. the model control group,"[4]; by tumor weight, cisplatin 4 mg/kg i.p. alone or + GLP-2 low dose 50 mg/kg oral",67.3%
same,Tumor,"[5]; W0, cisplatin 4 mg/kg i.p.",3756000 ± 2439052 P/s/cm^2/sr
same,Tumor,"[5]; W1, cisplatin 4 mg/kg i.p.",12898500 ± 3588676 P/s/cm^2/sr
same,Tumor,"[5]; W2, cisplatin 4 mg/kg i.p.",11871333 ± 2780016^& P/s/cm^2/sr
same,Tumor volume,[6]; [10],167.9 ± 42.2 mm^3
same,Tumor volume,[6]; [11],205.9 ± 122.5 mm^3
same,Tumor volume,[6]; [12],417.4 ± 228.3 mm^3
same,Tumor volume,[6]; [13],577.3 ± 420.2 mm^3
same,Tumor volume,[6]; [14],798± 676.5^+ mm^3
same,Tumor volume,[6]; [15],952.7± 711.9^+ mm^3
same,Tumor volume,[6]; [16],1097± 805.3^+ mm^3
same,Tumor growth inhibition rate vs. the model control group,[6],57.3^+ %
same,Tumor growth inhibition rate vs. the model control group,[6]; listed as cisplatin,57.3%
same,CD3^+/CD4^+,[7],4.26 ± 0.04
same,CD3^+/CD8^+,[7],4.21 ± 0.81
same,Mortality rate,[8]; [24],50.0%
same,Number of deaths,[8]; [24],3
same,Number of surviving animals,[8]; [24],3
same,Weight,"[8]; W0, cisplatin 4 mg/kg i.p.",18.5 ± 1.3 g
same,Weight,"[8]; W1, cisplatin 4 mg/kg i.p.",16.9 ± 1.8 g
same,Weight,"[8]; W2, cisplatin 4 mg/kg i.p.",15.1 ± 1.6 g
same,Liver coefficient,[8]; cisplatin 4 mg/kg i.p.,11.365 ± 3.599%
same,Spleen coefficient,[8]; cisplatin 4 mg/kg i.p.,0.524± 0.295 %
same,Thymus coefficient,[8]; cisplatin 4 mg/kg i.p.,0.078 ± 0.023 %
